Data published in article PMC12030000 (Pharmaceuticals, 2025).

Test system: ALS patient-derived iMNs (C9orf72 pathology)
Assay: iPSC-derived motor neuron (iMN) survival assay with neurotrophic factor withdrawal
Format: cell-based, human
Conditions: for Median survival time of treated ALS iMNs: ALS patient-derived iMNs, 14-day period; for Surviving iMNs (cell count): 300 tracked ALS iMNs on day 0
Description: In this study, iPSC-derived iMNs were generated from PALS (C9orf72 pathology) and from healthy donors' PBMCs. Neuronal survival rate was compared between PrimeC's components, their combination, and the relevant DMSO vehicle reference as described in Figure 2A-C. […] form between days 13 and 16 after transduction of iMN factors. The iMN survival assay was initiated on day 17. Starting at Day 17, longitudinal tracking of iMNs was performed using Molecular Devices ImageExpress once every other day for 16 days. Tracking of neuronal survival was performed using ImageJ version 1.53t. Neurons were scored as dead when their soma was no longer detectable by RFP fluorescence. iMN survival experiments included neurotrophic factor withdrawal in order to exacerbate the survival difference between control and PALS' iMNs. Neurotrophic factor withdrawal of FGF-2, BDNF, GDNF, and CNTF from the culture medium was performed on day 17. For treatment with drugs, cultures were treated with DMSO or a drug after neurotrophic factor withdrawal (starting at day 17). Treatment with fresh media containing vehicle or drugs occurred every 3 days for 16 days. […] Control cell lines of non-neurological subjects (i.e., neurologically healthy controls) were used in the comparisons. […] A hazard ratio was calculated for each of the comparisons as the likelihood of neuron death when treated with the indicated compound divided by the likelihood of neuron death when treated with another indicated compound. The lower the ratio, the […] it is for a cell to die when treated with the second compound compared to being treated with the first compound in each comparison above, and vice versa. Analysis utilized GraphPad Prism version 10.0.2 GraphPad. […] Kaplan-Meier plots were generated using iMNs obtained from each treatment condition in replicates of three. Confirmation of iMN survival times was analyzed by manual longitudinal tracking.

[1] = day 16, day 16 excluded from survival analyses

Structure (SMILES) | Median survival time of treated ALS iMNs [days] | Surviving iMNs (cell count) (day 2) | Surviving iMNs (cell count) (day 4) | Surviving iMNs (cell count) (day 6) | Surviving iMNs (cell count) (day 8) | Surviving iMNs (cell count) (day 10) | Surviving iMNs (cell count) (day 12) | Surviving iMNs (cell count) (day 14) | Surviving iMNs (cell count) [1]
O=C(O)c1cn(C2CC2)c2cc(N3CCNCC3)c(F)cc2c1=O [Ciprofloxacin, ciprofloxacin] | 8 | 300 | 262 | 238 | 210 | 177 | 146 | 118 | 74
Cc1ccc(-c2cc(C(F)(F)F)nn2-c2ccc(S(N)(=O)=O)cc2)cc1 [Celecoxib, celecoxib] | 8 | 300 | 272 | 227 | 190 | 139 | 104 | 79 | 55
